Laboratory results published in publication PMC6609550, “Blockade of the forward Na^+/Ca^2+ exchanger suppresses the growth of glioblastoma cells through Ca^2+‐mediated cell death” (British Journal of Pharmacology, 2019).

What was measured:
Type in all cases: cell-based, Human
[1] = tested on: forward NCX; experiment: Whole-cell patch-clamp recording of forward-mode NCX currents in U87 cells; conditions: forward NCX current measured at −110 mV, mean ± SEM, n = 4, read-out: IC50, blocking forward NCX (currents)
Method: (§1) Whole‐cell patch‐clamp recording was performed using a Multiclamp 700B amplifier (Molecular Devices, Foster City, CA, USA) at room temperature. Voltage protocols were provided and current recorded via a DigiData‐1550B interface (Molecular Devices) controlled by pClamp 10 Software (Molecular Devices, RRID:SCR_011323). […] Internal solution consisted of (in mM): 120 CsCl, 20 NaCl, 2 MgCl2, 13 CaCl2, 2 Na2ATP, 20 BAPTA, and 10 HEPES at a pH 7.2. […] Series resistance was compensated by 75–85%. Linear leak and residual capacitance currents were subtracted online using a P/4 protocol of the pClamp 10. For the recording of the membrane currents related to the NCX, cells were held at −50 mV and depolarized to +60 mV, and then a voltage ramp starting from +60 to −120 mV was applied for 1,000 ms before returning back to −50 mV. The reverse and forward NCX currents were measured at +50 and −110 mV holding potentials respectively (Molinaro et al., 2008; Rahman, Inman, Kiss, & Janssen, 2012; Song, Chen, & Yu, 2014). Data were filtered at 3 KHz and digitized at sampling rates of 20 KHz. For drug application, cells were perfused with a VC‐6 Six Channel Perfusion Valve Control Systems (Warner Instruments, Greenwich, CT, USA) connected to a gravity‐fed perfusion systems.
(§2) Data are expressed as mean ± SEM and analysed by Prism 7 software, La Jolla, CA (GraphPad Prism, RRID:SCR_002798). The data and statistical analysis comply with the recommendations of the British Journal of Pharmacology on experimental design and analysis in pharmacology. Concentrations of the NCX blockers (IC50) exerting half‐maximal inhibition of NCX currents were obtained by fitting the concentration–response with the equation: I/I0*100%=Bottom+Top−Bottom/1+10^((^Log^IC50−C)*n) , where I 0 and I are current amplitudes measured in control and in the presence of NCX blockers, C is the logarithm of concentration, and n is the Hill coefficient. The statistical difference between two independent groups was analysed by Student's parametric unpaired t test. And the original data of more than two groups were assessed by the parametric one‐way ANOVA followed by a Tukey's post hoc test. The data for cell viability and Western blot were usually normalized to the control group, and were thus analysed by the non‐parametric Kruskal–Wallis test followed by a Dunn's post hoc test. Differences were considered to be significant when P < .05. Post hoc tests were conducted when the F value achieved the necessary level (P < .05) and there was no significant variance inhomogeneity.
(§3) We characterized the membrane currents associated with NCX activity in glioblastoma cells using whole‐cell patch‐clamp recording. […] The NCX current in its reverse mode (Ca^2+ entry) was measured at +50, and the forward‐mode current (Ca^2+ exit) was measured at −110 mV. The Ni^2+ (10 mM) was employed to inhibit and identify the NCX currents in its either reverse or forward mode as previously reported (Maack, Ganesan, Sidor, & O'Rourke, 2005).

[2] = tested on: reverse NCX; experiment: Whole-cell patch-clamp recording of reverse-mode NCX currents in U87 cells; conditions: reverse NCX current measured at +50 mV, mean ± SEM, n = 4, read-out: IC50, blocking reverse NCX (currents)
Method: as §1, §2, §3

[3] = tested on: [Na^+]i in U87 cells; experiment: Na+ imaging (ANG-2 AM) of U87 cells; conditions: bepridil 50 μM, KB‐R7943 50 μM, CB‐DMB 4 μM
Method: Cells were cultured in 96‐well plates at 8 × 10^3 per well and loaded with the cell membrane‐permeable Ca^2+ dye Fluo‐4 AM (5 μM) in 100‐μl HEPES‐buffered solution for 50 min. The solution contained (mM): 135 NaCl, 3 KCl, 2 CaCl2, 1 MgCl2, 10 glucose, and 10 HEPES, supplemented with 1% FBS at pH 7.4. To prepare the Ca^2+‐free solution, 2‐mM CaCl2 was replaced with 1‐mM EGTA in the HEPES‐buffered solution. The 96‐well plate containing the Fluo‐4 AM‐loaded cells was mounted in a Leica TCS SP8 confocal system (Leica Microsystems, Wetzlar, Germany). The confocal microscope armed with 488‐nm laser light was employed to excite the dynamic fluorescent signals in time and synchronously, while test regents were added to cells. To do Na^+ imaging, Fluo‐4 AM was replaced with the cell membrane‐permeable Na^+ dye Asante NaTrium Green‐2 AM (ANG‐2 AM) at 5 μM, which was excited by 514‐nm laser light. Visual inspection and fluorescent imaging were carried out at room temperature. The imaging data were analysed with the software https://leica-las-af-lite.software.informer.com/ 2.5 (Leica). The imaging traces shown are representative of at least three separate experiments; 12–18 cells were imaged in each experiment.

[4] = tested on: U87 cells; experiment: Cell viability assay (Cell Counting Kit-8), U87; conditions: for IC50: 72 hr, CCK-8, mean ± SEM
Method: Cell viability was determined by using a Cell Counting Kit‐8 (Dojindo, Japan). Briefly, cells were harvested from flasks and plated in 96‐well cell culture plates at 5 × 10^3 per well and cultured overnight. […] Control cells were treated with cell culture medium and measured at the same time point as treatment groups. CCK‐8 solution (10 μl) was added to each well of the 96‐well plates, and the cultures were incubated for 30 min at 37°C. Absorbance at 450 nm was measured using an automatic microplate reader (Molecular Devices, San Jose, CA, USA).
Figure 2 Effect of the Na^+/Ca^2+ exchanger (NCX) blockers on viability of human glioblastoma cell lines. (a, b) Viability of adult glioblastoma cell lines (U87 and U251) after exposure to NCX blockers bepridil, KB‐R7943, SEA0400, SN‐6, or YM244769 at 0–100 μM for 72 hr. n = 5 independent tests per group. (c) Viability of paediatric glioblastoma cell line SF188 after 72‐hr incubation with the same NCX blockers at 0–100 μM. n = 5 independent tests per group. (d) For U87, U251, and SF188 cell lines, concentration of the NCX blockers required to produce half maximal inhibition (IC50: μM, mean ± SEM) of cell viability.

Row | IC50 [4] | Structure (SMILES) | IC50 [1] | IC50 [2] | Effect on intracellular Na+ [Na+]i level [3] | Effect on growth (viability) of U87 cells ([4]; 25 μM, 48 hr) | IC50 ([4]; Homo sapiens, U-87 MG)
1 |  | CC(C)COCC(CN(Cc1ccccc1)c1ccccc1)N1CCCC1 (stereo not drawn) [Bepridil, N‐benzyl‐N‐(3‐isobutoxy‐2‐pyrrolidin‐1‐yl‐propyl)aniline] | 19.1 ± 1.2 µM | 15.6 ± 1.1 µM | did not change | markedly suppressed growth | 18.6 ± 1.1 µM
2 | 26.6 ± 1.4 µM | CS(=O)(=O)O.N=C(N)SCCc1ccc(OCc2ccc([N+](=O)[O-])cc2)cc1 [KB‐R7943, 2‐[4‐[(4‐nitrophenyl)methoxy]phenyl]ethyl ester carbamimidothioic acid methanesulfonate] | 32.3 ± 1.3 µM | 14.3 ± 1.2 µM | slightly decreased |  | 
